Measurements: patent US9700044B2, “Symmetrical marinopyrrole derivatives as potential antibiotic agents” (priority 2013, dated 2017)
In brackets after ≈: the same amount, converted by molar mass. Where two headings read alike, the source gives them in different places.

Legend:
[1] = test system: Methicillin-susceptible Staphylococcus aureus (MSSA); assay: MIC by agar dilution, MSSA clinical isolates; format: cell-based; conditions: MSSA
Text: (§1) A panel of multiple resistance Gram-positive and Gram-negative pathogens listed in Tables 1 and 2 was used to evaluate the antimicrobial activity of marinopyrrole derivatives (Chart 1) with vancomycin as a positive control. Except for those marked with WHO, all pathogens were isolated between 2008 and 2010 in hospitals located in Beijing; Guangzhou; Sichuan, Shandong and Jiangsu Province. Determination of the minimum inhibitory concentration (MIC) was done by the guidelines of the Clinical and Laboratory Standards Institute (Clinical and Laboratory Standards Institute, Performance standards for antimicrobial susceptibility testing, seventeenth informational supplement. 2007, 27, M100-S17). The susceptibility tests of a bacterial strain to a marinopyrrole derivative were performed by an agar dilution method. Briefly, each sterile petri dish contained a final volume of 15 mL comprising 1 mL of a marinopyrrole derivative and 14 mL of Mueller-Hinton broth. The concentrations of a marinopyrrole derivative are 128, 64, 32, 16, 8, 4, 2, 1, 0.5, 0.25, 0.125, 0.06, 0.03, 0.015 and 0.008 μg/mL. The petri dish containing the broth with different concentration of antibiotics was first inoculated with 10^5 CFU/mL (Denley A400, United Kingdom) and the culture was then incubated with shaking at 35-37° C. for 18-20 h. The potency of the compound was determined and expressed as minimum inhibitory concentration (MIC) in μg/mL. The MIC was determined as the lowest concentration of antibiotic that inhibited visible bacterial growth.

[2] = test system: Methicillin-resistant Staphylococcus aureus (MRSA); assay: MIC by agar dilution, MRSA clinical isolates; format: cell-based; conditions: MRSA
Text: as §1

[3] = test system: Methicillin-resistant Staphylococcus epidermidis (MRSE); assay: MIC by agar dilution, MRSE clinical isolates; format: cell-based; conditions: MRSE
Text: as §1

[4] = test system: Moderately vancomycin-resistant Enterococci faecium with the VanA gene (WHO-3); assay: MIC by agar dilution, VRE (WHO-3); format: cell-based
Text: as §1

[5] = test system: Oxacillin-resistant Staphylococcus aureus (WHO-25); assay: MIC by agar dilution, ORSA (WHO-25); format: cell-based
Text: as §1

[6] = test system: Methicillin-resistant Staphylococcus aureus with the mec A gene and PBP2a (WHO-31); assay: MIC by agar dilution, MRSA (WHO-31); format: cell-based
Text: as §1

[7] = test system: Highly vancomycin-resistant Enterococci faecalis (VRE); assay: MIC by agar dilution, highly resistant VRE; format: cell-based
Text: as §1

[8] = test system: K. penumonia; assay: MIC by agar dilution, K. penumonia; format: cell-based, K. pneumonia
Text: as §1

[9] = test system: P. aeruginosa; assay: MIC by agar dilution, P. aeruginosa; format: cell-based
Text: as §1

[10] = test system: E. coli; assay: MIC by agar dilution, E. coli; format: cell-based
Text: as §1

[11] = Staphylococcus aureus, Table 1, 10 isolates
[12] = Staphylococcus aureus, Table 2, data from 8 isolates
[13] = Staphylococcus aureus, Table 3, data from 8 isolates
[14] = Table 1, VRE (WHO-3), 1 isolate
[15] = Table 1, ORSA (WHO-25), 1 isolate
[16] = Table 1, MRSA (WHO-31), 1 isolate
[17] = Table 1, VRE (highly vancomycin-resistant E. faecalis), 2 isolates
[18] = Table 1, K. penumonia, 4 isolates, value over three Gram-negative pathogens
[19] = Table 1, P. aeruginosa, 4 isolates, value over three Gram-negative pathogens
[20] = Table 1, E. coli, 4 isolates, value over three Gram-negative pathogens

In the case of `CN[C@H](CC(C)C)C(=O)N[C@H]1C(=O)N[C@@H](CC(N)=O)C(=O)N[C@H]2C(=O)N[C@H]3C(=O)N[C@H](C(=O)N[C@H](C(=O)O)c4cc(O)cc(O)c4-c4cc3ccc4O)[C@H](O)c3ccc(c(Cl)c3)Oc3cc2cc(c3O[C@@H]2O[C@H](CO)[C@@H](O)[C@H](O)[C@H]2O[C@H]2C[C@](C)(N)[C@H](O)[C@H](C)O2)Oc2ccc(cc2Cl)[C@H]1O` [Van, Vancomycin, reference compound], the MIC [1, 11] is reported as 0.5 to 1 µg/mL (≈ 0.345 to 0.69 µM), the MIC [1, 12] is reported as 1 µg/mL (≈ 0.69 µM) and the MIC [1, 13] is reported as 1 µg/mL (≈ 0.69 µM). For the same compound, the MIC [2, 11] was 0.25 to 0.5 µg/mL (≈ 0.173 to 0.345 µM), the MIC [2, 12] was 0.5 to 1 µg/mL (≈ 0.345 to 0.69 µM) and the MIC [2, 13] was 0.5 to 1 µg/mL (≈ 0.345 to 0.69 µM). For the same compound, the MIC ([3]; Staphylococcus epidermidis, Table 1, 3 isolates) was 0.13 to 0.5 µg/mL (≈ 0.0897 to 0.345 µM), the MIC ([3]; Staphylococcus epidermidis, Table 2, data from 4 isolates) was 0.5 to 1 µg/mL (≈ 0.345 to 0.69 µM) and the MIC ([3]; Staphylococcus epidermidis, Table 3, data from 4 isolates) was 0.5 to 1 µg/mL (≈ 0.345 to 0.69 µM). The MIC ([4]; Enterococcus) was > 128 µg/mL, the MIC ([4]; Enterococcus, VRE) was > 64 µg/mL and the MIC ([4]; Table 3, WHO-3) was >128 µg/mL. For the same compound, the MIC ([5]; Staphylococcus aureus, Table 1, ORSA (WHO-25), 1 isolate) was 2 µg/mL (≈ 1.38 µM), the MIC ([5]; Staphylococcus aureus, Table 3, WHO-25) was 4 µg/mL (≈ 2.76 µM) and the MIC ([5]; Staphylococcus aureus, Table 2, WHO-25) was 4 µg/mL (≈ 2.76 µM). It also gave an MIC ([6]; Staphylococcus aureus) of 1 µg/mL (≈ 0.69 µM), an MIC ([6]; Staphylococcus aureus, MRSA) of 0.5 µg/mL (≈ 0.345 µM) and an MIC ([6]; Table 3, WHO-31) of 1 µg/mL (≈ 0.69 µM). For the same compound, the MIC [7] was > 128 µg/mL, the MIC ([8]; Klebsiella pneumoniae) was > 128 µg/mL and the MIC ([9]; Pseudomonas aeruginosa) was > 128 µg/mL. For the same compound, the MIC ([10]; Escherichia coli) was > 128 µg/mL.

With `COc1ccc(C(=O)c2[nH]c(Cl)c(Cl)c2-n2c(C(=O)c3ccc(OC)cc3)cc(Cl)c2Cl)cc1` [Compound 1f] the MIC ([1]; Table 1, 10 isolates) was >128 µg/mL, the MIC ([2]; Table 1, 10 isolates) was >128 µg/mL and the MIC ([3]; Table 1, 3 isolates) was >128 µg/mL. For the same compound, the MIC [4, 14] was >128 µg/mL, the MIC [5, 15] was >128 µg/mL and the MIC [6, 16] was >128 µg/mL. The MIC [7, 17] was >128 µg/mL, the MIC [8, 18] was >128 µg/mL and the MIC [9, 19] was >128 µg/mL. For the same compound, the MIC [10, 20] was >128 µg/mL.

`O=C(c1ccccc1F)c1[nH]c(Cl)c(Cl)c1-n1c(C(=O)c2ccccc2F)cc(Cl)c1Cl` [Compound 1g] was tested, and the MIC ([1]; Table 1, 10 isolates) was >128 µg/mL, the MIC ([2]; Table 1, 10 isolates) was >128 µg/mL and the MIC ([3]; Table 1, 3 isolates) was >128 µg/mL. For the same compound, the MIC [4, 14] was >128 µg/mL, the MIC [5, 15] was >128 µg/mL and the MIC [6, 16] was >128 µg/mL. The MIC [7, 17] was >128 µg/mL, the MIC [8, 18] was >128 µg/mL and the MIC [9, 19] was >128 µg/mL. The MIC [10, 20] was >128 µg/mL.

For `COc1cc(OC)c(C(=O)c2[nH]c(Cl)c(Cl)c2-n2c(C(=O)c3cc(Cl)c(OC)cc3OC)cc(Cl)c2Cl)cc1Cl` [Compound 1n], the MIC ([1]; Table 1, 10 isolates) was >64 µg/mL, the MIC ([2]; Table 1, 10 isolates) was >64 µg/mL and the MIC ([3]; Table 1, 3 isolates) was >64 µg/mL. For the same compound, the MIC [4, 14] was >64 µg/mL, the MIC [5, 15] was >64 µg/mL and the MIC [6, 16] was >64 µg/mL. For the same compound, the MIC [7, 17] was >64 µg/mL, the MIC [8, 18] was >64 µg/mL and the MIC [9, 19] was >64 µg/mL. The MIC [10, 20] was >64 µg/mL.

`O=C(c1ccc(F)cc1)c1[nH]c(Cl)c(Cl)c1-n1c(C(=O)c2ccc(F)cc2)cc(Cl)c1Cl` [Compound 1i] gave an MIC ([1]; Table 1, 10 isolates) of 4 to 16 µg/mL, an MIC ([2]; Table 1, 10 isolates) of 8 to 16 µg/mL and an MIC ([3]; Table 1, 3 isolates) of 0.25 to 4 µg/mL. The MIC [4, 14] was 4 µg/mL (≈ 7.78 µM), the MIC [5, 15] was 8 µg/mL (≈ 15.6 µM) and the MIC [6, 16] was 4 µg/mL (≈ 7.78 µM). For the same compound, the MIC [7, 17] was >128 µg/mL, the MIC [8, 18] was >128 µg/mL and the MIC [9, 19] was >128 µg/mL. For the same compound, the MIC [10, 20] was >128 µg/mL.

With `O=C(c1ccc(C(F)(F)F)cc1)c1[nH]c(Cl)c(Cl)c1-n1c(C(=O)c2ccc(C(F)(F)F)cc2)cc(Cl)c1Cl` [Compound 1k] the MIC ([1]; Table 1, 10 isolates) was 8 to 32 µg/mL, the MIC ([2]; Table 1, 10 isolates) was 32 to 64 µg/mL and the MIC ([3]; Table 1, 3 isolates) was 0.03 to 4 µg/mL. For the same compound, the MIC [4, 14] was 8 µg/mL (≈ 13 µM), the MIC [5, 15] was 8 µg/mL (≈ 13 µM) and the MIC [6, 16] was 8 µg/mL (≈ 13 µM). For the same compound, the MIC [7, 17] was >128 µg/mL, the MIC [8, 18] was >128 µg/mL and the MIC [9, 19] was >128 µg/mL. The MIC [10, 20] was >128 µg/mL.

`O=C(c1cccc(F)c1)c1[nH]c(Cl)c(Cl)c1-n1c(C(=O)c2cccc(F)c2)cc(Cl)c1Cl` [Compound 1h] was tested, and the MIC ([1]; Table 1, 10 isolates) was 4 to 16 µg/mL, the MIC ([2]; Table 1, 10 isolates) was >64 µg/mL and the MIC ([3]; Table 1, 3 isolates) was 0.13 to 1 µg/mL. It also gave an MIC [4, 14] of 4 µg/mL (≈ 7.78 µM), an MIC [5, 15] of 4 µg/mL (≈ 7.78 µM) and an MIC [6, 16] of 4 µg/mL (≈ 7.78 µM). For the same compound, the MIC [7, 17] was >128 µg/mL, the MIC [8, 18] was >128 µg/mL and the MIC [9, 19] was >128 µg/mL. The MIC [10, 20] was >128 µg/mL.
